Data as given in patent publication US7186736B1, “NNI for treatment of multi-drug resistant HIV” (Parker Hughes Institute, priority 1999, dated 2007).
Read-outs that look alike come from different tables or passages of the source.

Assays:
[1] = test system: HIV strain RT-MDR (74V, 41L, 106A, 215Y); test: microbe, parasite or virus in culture; format: cell-based, HIV-1; settings: for times less potent than DDE240: multiple drug resistant mutant strain
Protocol: (§1) Percent inhibition of viral replication was calculated by comparing the p24 values from the test substance treated infected cells with p24 values from untreated infected cells (i.e., virus controls). In parallel, the effects of various treatments on cell viability were also examined, as described in Enrice et. al., supra. In brief, non-infected PBNWC were treated with each compound for 7 days under identical experimental conditions. A Microculture Tetrazolium Assay (NTFA), using 2,3-bis(2-methoxy-4 nitro-5-sulfophenyl)-5-[(phenylamino)-carbonyl]-2H-tetrazolium hydroxide (XTT), was performed to quantitate cellular proliferation.

HIV strain A17 (Y181C) = test: p24 production in PBMNC infected with A17; format: cell-based, HIV-1; settings: for IC50: Human immunodeficiency virus 1, read-out: IC50 p24
Protocol: (§2) Normal human peripheral blood mononuclear cells (PBMNC) from HIV-negative donors were cultured 72 hours in RPMI 1640 supplemented with 20% (v/v) heat-inactivated fetal bovine serum (FBS), 3% interleukin-2, 2 mM L-glutairtine, 25 mM HEPES, 2 μL, NAHCO, […] gentamicin, and 4 μg/mL phytohemagglutinin prior to exposure to HIV-I at a multiplicity of infection (MOI) of 0.1 during a one-hour adsorption period at 37'C in a humidified 5% C02 atmosphere. Subsequently, cells were cultured in 96-well microliter plates (100 μl/well; 2×10^6 cells/mL, triplicate wells) in the presence of various inhibitor concentrations and aliquots of culture supernatants were removed from the wells on the 7th day after infection for p24 antigen p24 enzyme immunoassays (EIA), as previously described. (see Erice et. al., 1993, Antiimicrob. Ag. Chemotherapy 37:835–838) The applied p24 EIA was the unmodified kinetic assay commercially available from Coulter Corporation/Immunotech, Inc. (Westbrooke, Me.), which utilizes a murine monoclonal antibody to HIV core protein coated onto microwell strips to which the antigen present in the test culture supernatant samples binds. Percent inhibition of viral replication was calculated by comparing the p24 values from the test substance treated infected cells with p24 values from untreated infected cells (i.e., virus controls). In parallel, the effects of various treatments on cell viability were also examined, as described in Enrice et. al., supra. In brief, non-infected PBNWC were treated with each compound for 7 days under identical experimental conditions. A Microculture Tetrazolium Assay (NTFA), using 2,3-bis(2-methoxy-4 nitro-5-sulfophenyl)-5-[(phenylamino)-carbonyl]-2H-tetrazolium hydroxide (XTT), was performed to quantitate cellular proliferation.

[2] = test system: HIV strain HTLV-IIIB (WT); test: p24 production in PBMNC infected with HTLV-IIIB; format: cell-based, HIV-1
Protocol: as §1

[3] = test system: HIV strain A17 variant (Y181C, K103N); test: p24 production in PBMNC infected with A17 variant; format: cell-based, HIV-1; settings: Human immunodeficiency virus 1, read-out: IC50 p24
Protocol: as §2

[4] = biological target: T1, purified recombinant HIV RT (Human immunodeficiency virus type 1 group M subtype B, UniProt P04585); test: Purified RT assay, cell-free Quan-T-RT system (scintillation proximity); format: biochemical; settings: for IC50: recombinant HIV RT, cell-free
T1 construct: purified recombinant HIV RT
Protocol: The primer DNA is a 16-mer oligo(T) which has been annealed to a poly(A) template. The primer/template is bound to a strepavidin-coated SPA bead.
3H-TTP is incorporated into the primer by reverse transcription. […] The compound being tested was added to the reaction mixture at 0.001 μM–100 μM concentrations. […] The reaction was stopped by addition of 0.2 ml of 120 mM EDTA. The samples were counted in an open window using a Beckman LS 7600 instrument and IC, values were calculated by comparing the measurements to untreated samples.

[5] = Human immunodeficiency virus 1, read-out: IC50 p24, RT-MDR (74V, 41L, 106A, 215Y), PBMNC
[6] = Human immunodeficiency virus 1, HTLV IIIB WT, PBMNC, read-out: IC50 p24
[7] = Human immunodeficiency virus 1, HTLV IIIB, PBMNC, read-out: IC50[p24]
[8] = Human immunodeficiency virus 1, IIIB, HIV replication assay

| Compound | IC50 [1, 5] | IC50 (HIV strain A17 (Y181C)) | IC50 [2, 6] | IC50 [3] | IC50 ([4]; read-out: RRT (IC50[rRT])) | further results |
| --- | --- | --- | --- | --- | --- | --- |
| CC(C)Nc1cccnc1N1CCN(C(=O)c2cc3cc(NS(C)(=O)=O)ccc3[nH]2)CC1 [Delavirdine, reference compound] | 400 nM | 50000 nM | 9 nM | > 100000 nM | – | – |
| Fc1ccc(CCNC(=S)Nc2ccc(Br)cn2)cc1 [DDE242] | – | – | – | – | 6060 nM | IC50 ([4]; RRT (IC50[rRT])): 6000 nM; IC50 [2, 7]: 10 nM |
| S=C(NCCc1ccccn1)Nc1ccc(Br)cn1 [Trovirdine, reference compound] | – | – | – | – | – | IC50 ([1]; Human immunodeficiency virus 1, read-out: IC50 p24): 20 nM; times less potent than DDE240 [1]: up to 7 times; times less potent than DDE240 ([1]; listed as Trouviridine): three times less potent; IC50 ([2]; Human immunodeficiency virus 1, IIIB, read-out: IC50 p24): 7 nM; times less potent than DDE240 ([2]; zidovudine-sensitive strain HTLV IIIB): 10 times |
| Fc1ccccc1CCNC(=S)Nc1ccc(Br)cn1 [DDE240, N-[2-(2-fluorophenethyl)]-N′-[2-(5-bromopyridyl)]-thiourea] | 6 nM | 200 nM | < 1 nM | 41000 nM | – | fold better activity than delavirdine ([1]; MDR HIV): 100 fold; fold better activity than nevirapine ([1]; MDR HIV): 800 fold; IC50 ([1]; read-out: IC50 p24, RT-MDR (74V, 41L, 106A, 215Y), PBMNC): 5 nM; times better activity than delavirdine (HIV strain A17 (Y181C); Y181C mutant): 200 times; times more potent than nevirapine (HIV strain A17 (Y181C); Y181C mutant): more than 500 times; IC50 [2, 7]: < 1 nM; melting point: 156 to 157 °C |
| CCOCn1c(Cc2ccccc2)c(C(C)C)c(=O)[nH]c1=O [MKC-442, reference compound] | 300 nM | – | – | – | 800 nM | – |
| S=C(NCCc1ccccc1Cl)Nc1ccc(Br)cn1 [DDE253] | 4 nM | – | < 1 nM | – | – | – |
| COc1ccc(OC)c(CCNC(=S)Nc2ccc(Br)cn2)c1 [DDE236, N-[2-(2,5-dimethoxyphenylethyl)]-N′-[2-(5-bromopyridyl)]-thiourea] | 5 nM | 100 nM | < 1 nM | 11000 nM | – | times more potent than trovirdine ([4]; purified recombinant HIV-RT): 8 times; IC90 fold better than AZT ([2]; HIV replication assay): 10 fold; IC90 [2, 8]: 9 nM; selectivity index (IC50[MTA]/IC50[p24]) ([2]; calculated): > 10^5; melting point: 133 to 138 °C |
| Fc1cccc(CCNC(=S)Nc2ccc(Br)cn2)c1 [DDE241] | 20 nM | – | < 1 nM | – | 760 nM | – |
| Cc1cn([C@H]2C[C@H](N=[N+]=[N-])[C@@H](CO)O2)c(=O)[nH]c1=O [AZT, reference compound] | 150 nM | 6 nM | – | – | – | IC90 [2, 8]: 100 nM |
| Cc1ccnc2c1NC(=O)c1cccnc1N2C1CC1 [Nevirapine, reference compound] | 5000 nM | > 100000 nM | 34 nM | > 100000 nM | – | – |
